From patent publication US9211310B2, “Use of a Chinese medicine composition in preparing medicaments for treating secondary prevention of myocardial infarction” (TASLY PHARMACEUTICAL GROUP CO., LTD, priority 2010, dated 2015)

Tested on: patients after acute myocardial infarction
Experiment: TCM symptom score, total and single (chest pain, chest tightness, short breath, fatigue, palpitation, spontaneous perspiration, pale complexion), same clinical trial
Assay type: in vivo, human
Design: total score of TCM symptom, Mean / total score of TCM symptom, Min / total score of TCM symptom, Max / total score of TCM symptom, Md / change of total score of TCM symptom, Mean / change of total score of TCM symptom, Max / change of total score of TCM symptom, Md: scale not given here
Settings: FAS
Text: 3508 patients who were in accordance with the diagnostic standards of AMI for 28 days to 2 years and differentiated as Qi deficiency and blood stagnation syndrome by TCM were studied. 0.5 g Chinese medicine composition prepared by the method of EXAMPLE 1 (Coded as QSYQ) was administrated half an hour after meal, 3 times per day.
They included the overall survival time, angina pectoris score, TCM symptom score and life quality score, where angina pectoris score, TCM symptom score and life quality score were evaluated at randomization, in 1st, 3rd, 6th, 9th, 12th month after treatment and 18th month after follow-up.
The analysis method referred to the angina pectoris score.

[1] = 3 months after treatment-baseline
[2] = 6 months after treatment-baseline

CC(=O)Oc1ccccc1C(=O)O [Control group, aspirine]
total score of TCM symptom, Md (3 months after treatment): 10.00 | total score of TCM symptom, Mean (3 months after treatment): 10.90 | total score of TCM symptom, Min (3 months after treatment): 0.00 | change of fatigue 0, % of patients [1]: (64.74%) | change of fatigue 0, number of patients [1]: 1107 | change of fatigue 2, % of patients [1]: (24.56%) | change of fatigue 2, number of patients [1]: 420 | change of fatigue 4, % of patients [1]: (4.09%) | change of fatigue 4, number of patients [1]: 70 | change of fatigue 6, % of patients [1]: (0.94%) | change of fatigue 6, number of patients [1]: 16 | change of fatigue −2, % of patients [1]: (5.03%) | change of fatigue −2, number of patients [1]: 86 | change of fatigue −4, % of patients [1]: (0.53%) | change of fatigue −4, number of patients [1]: 9 | change of fatigue −6, % of patients [1]: (0.12%) | change of fatigue −6, number of patients [1]: 2 | change of pale complexion 0, number of patients [1]: 1387 | change of pale complexion 0, percent of patients [1]: (81.21%) | change of pale complexion 1, number of patients [1]: 259 | change of pale complexion 1, percent of patients [1]: (15.16%) | change of pale complexion −1, number of patients [1]: 62 | change of pale complexion −1, percent of patients [1]: (3.63%) | change of palpitation 0, number of patients [1]: 1125 | change of palpitation 0, percent of patients [1]: (65.79%) | change of palpitation 1, number of patients [1]: 415 | change of palpitation 1, percent of patients [1]: (24.27%) | change of palpitation 2, number of patients [1]: 43 | change of palpitation 2, percent of patients [1]: (2.51%) | change of palpitation 3, number of patients [1]: 6 | change of palpitation 3, percent of patients [1]: (0.35%) | change of palpitation −1, percent of patients [1]: (6.96%) | change of palpitation −2, number of patients [1]: 2 | change of palpitation −2, percent of patients [1]: (0.12%) | change of palpitation −3, number of patients [1]: 0 | change of palpitation −3, percent of patients [1]: (0.00%) | change of short breath 0, % of patients [1]: (71.29%) | change of short breath 0, number of patients [1]: 1219 | change of short breath 2, % of patients [1]: (20.47%) | change of short breath 2, number of patients [1]: 350 | change of short breath 4, % of patients [1]: (2.16%) | change of short breath 4, number of patients [1]: 37 | change of short breath 6, % of patients [1]: (0.53%) | change of short breath 6, number of patients [1]: 9 | change of short breath −2, % of patients [1]: (5.44%) | change of short breath −2, number of patients [1]: 93 | change of short breath −4, % of patients [1]: (0.12%) | change of short breath −4, number of patients [1]: 2 | change of short breath −6, % of patients [1]: (0.00%) | change of short breath −6, number of patients [1]: 0 | change of spontaneous perspiration 0, number of patients [1]: 1083 | change of spontaneous perspiration 0, percent of patients [1]: (63.37%) | change of spontaneous perspiration 1, number of patients [1]: 392 | change of spontaneous perspiration 1, percent of patients [1]: (22.94%) | change of spontaneous perspiration 2, number of patients [1]: 76 | change of spontaneous perspiration 2, percent of patients [1]: (4.45%) | change of spontaneous perspiration 3, number of patients [1]: 20 | change of spontaneous perspiration 3, percent of patients [1]: (1.17%) | change of spontaneous perspiration −1, percent of patients [1]: (7.08%) | change of spontaneous perspiration −2, number of patients [1]: 15 | change of spontaneous perspiration −2, percent of patients [1]: (0.88%) | change of spontaneous perspiration −3, number of patients [1]: 2 | change of spontaneous perspiration −3, percent of patients [1]: (0.12%) | distribution of total score of TCM symptom: Medium, number of patients (6 months after treatment): 418 | distribution of total score of TCM symptom: Medium, percentage of patients (6 months after treatment): (26.79%) | distribution of total score of TCM symptom: Mild, number of patients (6 months after treatment): 1133 | distribution of total score of TCM symptom: Mild, percentage of patients (6 months after treatment): (72.63%) | distribution of total score of TCM symptom: Severe, number of patients (6 months after treatment): 9 | distribution of total score of TCM symptom: Severe, percentage of patients (6 months after treatment): (0.58%) | fatigue score 0, % of patients (6 months after treatment): (30.27%) | fatigue score 0, number of patients (6 months after treatment): 520 | fatigue score 2, % of patients (6 months after treatment): (61.00%) | fatigue score 2, number of patients (6 months after treatment): 1048 | fatigue score 4, % of patients (6 months after treatment): (7.86%) | fatigue score 4, number of patients (6 months after treatment): 135 | fatigue score 6, % of patients (6 months after treatment): (0.87%) | fatigue score 6, number of patients (6 months after treatment): 15 | pale complexion score 0, number of patients (6 months after treatment): 871 | pale complexion score 0, percent of patients (6 months after treatment): (50.70%) | pale complexion score 1, number of patients (6 months after treatment): 657 | pale complexion score 1, percent of patients (6 months after treatment): (38.24%) | pale complexion score 2, number of patients (6 months after treatment): 179 | pale complexion score 2, percent of patients (6 months after treatment): (10.42%) | pale complexion score 3, number of patients (6 months after treatment): 11 | pale complexion score 3, percent of patients (6 months after treatment): (0.64%) | palpitation score 0, number of patients (6 months after treatment): 538 | palpitation score 0, percent of patients (6 months after treatment): (31.32%) | palpitation score 2, number of patients (6 months after treatment): 906 | palpitation score 2, percent of patients (6 months after treatment): (52.74%) | palpitation score 4, number of patients (6 months after treatment): 246 | palpitation score 4, percent of patients (6 months after treatment): (14.32%) | palpitation score 6, number of patients (6 months after treatment): 28 | palpitation score 6, percent of patients (6 months after treatment): (1.63%) | short breath score 0, % of patients (6 months after treatment): (25.03%) | short breath score 0, number of patients (6 months after treatment): 430 | short breath score 2, % of patients (6 months after treatment): (0.06%) | short breath score 2, number of patients (6 months after treatment): 1 | short breath score 3, % of patients (6 months after treatment): (58.09%) | short breath score 3, number of patients (6 months after treatment): 998 | short breath score 6, % of patients (6 months after treatment): (16.30%) | short breath score 6, number of patients (6 months after treatment): 280 | short breath score 9, % of patients (6 months after treatment): (0.52%) | short breath score 9, number of patients (6 months after treatment): 9 | spontaneous perspiration score 0, number of patients (6 months after treatment): 728 | spontaneous perspiration score 0, percent of patients (6 months after treatment): (42.37%) | spontaneous perspiration score 1, number of patients (6 months after treatment): 833 | spontaneous perspiration score 1, percent of patients (6 months after treatment): (48.49%) | spontaneous perspiration score 2, number of patients (6 months after treatment): 144 | spontaneous perspiration score 2, percent of patients (6 months after treatment): (8.38%) | spontaneous perspiration score 3, number of patients (6 months after treatment): 13 | spontaneous perspiration score 3, percent of patients (6 months after treatment): (0.76%) | total score of TCM symptom, Max (6 months after treatment): 34.00 | total score of TCM symptom, Md (6 months after treatment): 9.00 | total score of TCM symptom, Mean (6 months after treatment): 10.04 | total score of TCM symptom, Min (6 months after treatment): 0.00 | change of fatigue 0, % of patients [2]: (56.96%) | change of fatigue 0, number of patients [2]: 974 | change of fatigue 2, % of patients [2]: (28.54%) | change of fatigue 2, number of patients [2]: 488 | change of fatigue 4, % of patients [2]: (6.43%) | change of fatigue 4, number of patients [2]: 110 | change of fatigue 6, % of patients [2]: (1.05%) | change of fatigue 6, number of patients [2]: 18 | change of fatigue −2, % of patients [2]: (6.32%)
